What follows are compounds tested on C6/36 Aedes albopictus cell line infected with Wolbachia pipientis (Wolbachia strain wAlbB) (assay: In vitro insect cell line assay (anti-Wolbachia screen, SYTO 11 high content imaging)). Conditions: 168 h; C6/36 Aedes albopictus cells infected with Wolbachia pipientis wAlbB, 7 days incubation, SYTO 11 imaging; read-out: In vitro anti-Wolbachia activity.
Type: cell-based
How it was run: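 SYTO 11 staining (15 min), high-content imaging and texture analysis were the read-out on day 7. Before that, C6/36 mosquito cells carrying Wolbachia strain wAlbB were incubated at 26 °C with test compound at 5 μM final, alongside DMSO-only control wells.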
In the case of `CN1CC(Nc2nc(NCc3cccnc3C(F)(F)F)c3cccnc3n2)C1` [Example 148, N^2-(1-methylazetidin-3-yl)-N^4-((2-(trifluoromethyl)pyridin-3-yl)methyl)pyrido[2,3-d]pyrimidine-2,4-diamine], the EC50 is reported as 1000 to 100000 nM. For `CC1(C)CCN(c2nc(NCc3ccccc3C(F)(F)F)c3cccnc3n2)CC1` [Example 244, 2-(4,4-dimethylpiperidin-1-yl)-N-(2-(trifluoromethyl)benzyl)pyndo[2,3-d]pyrimidin-4-amine], the EC50 was 1 to 10 nM. Work on `FC1CN(c2nc(NCc3cccnc3C(F)(F)F)c3cccnc3n2)C1` [Example 200, 2-(3-fluoroazetidin-1-yl)-N-((2-(trifluoromethyl)pyridin-3-yl)methyl)pyrido[2,3-d]pyrimidin-4-amine] yielded an EC50 of 10 to 100 nM. With `COc1cccc(CNc2nc(NC(C)C)nc3ccsc23)c1F` [Example 26, N^4-(2-fluoro-3-methoxybenzyl)-N^2-isopropylthieno[3,2-d]pyrimidine-2,4-diamine] the EC50 was 100 to 1000 nM. `O=C(Nc1nc(NCc2cccnc2C(F)(F)F)c2cccnc2n1)Nc1ccccc1F` [Example 206, 1-(2-fluorophenyl)-3-(4-(((2-(trifluoromethyl)pyridin-3-yl)methyl)amino)pyrido[2,3-d]pyrimidin-2-yl)urea] showed an EC50 of 100 to 1000 nM. Compound `CC(c1ccccc1C(F)(F)F)N(C)c1nc(C#N)nc2ccsc12` (stereo not drawn) [Example 74, 4-(methyl(1-(2-(trifluoromethyl)phenyl)ethyl)amino)thieno[3,2-d]pyrimidine-2-carbonitrile] has an EC50 of 1000 to 100000 nM. `COc1cccc(CNc2nc(NC(C)C)nc3ccsc23)c1` [Example 16, N^2-isopropyl-N^4-(3-methoxybenzyl)thieno[3,2-d]pyrimidine-2,4-diamine] showed an EC50 of 1000 to 100000 nM. In the case of `FC(F)(F)c1ccccc1C1CCN1c1nc(N2CC(C(F)(F)F)C2)nc2ncccc12` (stereo not drawn) [Example 216, 2-(3-(trifluoromethyl)azetidin-1-yl)-4-(2-(2-(trifluoromethyl)phenyl)azetidin-1-yl)pyrido[2,3-d]pyrimidine], the EC50 is reported as 100 to 1000 nM. Compound `CN(Cc1ccccc1C(F)(F)F)c1ncnc2ccsc12` [Example 44, N-methyl-N-(2-(trifluoromethyl)benzyl)thieno[3,2-d]pyrimidin-4-amine] has an EC50 of 10 to 100 nM. With `FC(F)(F)OC1CCN(c2nc(NCc3cccnc3C(F)(F)F)c3cccnc3n2)CC1` [Example 273, 2-(4-(trifluoromethoxy)piperidin-1-yl)-N-((2-(trifluoromethyl)pyridin-3-yl)methyl)pyrido[2,3-d]pyrimidin-4-amine] the EC50 was less than 0.01 nM. Compound `FC(F)(F)c1ccc(CNc2nc(Cl)nc3ccccc23)cn1` [Example 115] has an EC50 of 1000 to 100000 nM. `CC(C)Nc1nc(NCCc2ccccc2C(F)(F)F)c2sccc2n1` [Example 45, N^2-isopropyl-N^4-(2-(trifluoromethyl)phenethyl)thieno(3,2-d]pyrimidine-2,4-diamine] gave an EC50 of 100 to 1000 nM. In the case of `CC(C)(C)N(Cc1ccccc1C(F)(F)F)c1ncnc2ccsc12` [Example 85], the EC50 is reported as 100 to 1000 nM. Compound `CC(O)c1nc(NCc2ccccc2C(F)(F)F)c2sccc2n1` (stereo not drawn) [Example 84] has an EC50 of 1000 to 100000 nM. Work on `Cc1nc(N(C)Cc2ccccc2C(F)(F)F)c2sccc2n1` [Example 63, N,2-dimethyl-N-(2-(trifluoromethyl)benzyl)thieno[3,2-d]pyrimidin-4-amine] yielded an EC50 of 10 to 100 nM. `CC(C)S(=O)(=O)c1nc(NCc2cccnc2C(F)(F)F)c2cccnc2n1` [Example 179, 2-(isopropylsulfonyl)-N-((2-(trifluoromethyl)pyridin-3-yl)methyl)pyrido[2,3-d]pyrimidin-4-amine] showed an EC50 of 10 to 100 nM. For `CC(C)C1COCCN1c1nc(NCc2cccnc2C(F)(F)F)c2cccnc2n1` (stereo not drawn) [Example 269, 2-(3-isopropylmorpholino)-N-((2-(trifluoromethyl)pyridin-3-yl)methyl)pyrido[2,3-d]pyrimidin-4-amine], the EC50 was 1 to 10 nM. `Cc1nc(NCc2cccnc2C(F)(F)F)c2cccnc2n1` [Example 177, 2-methyl-N-((2-(trifluoromethyl)pyridin-3-yl)methyl)pyrido[2,3-d]pyrimidin-4-amine] gave an EC50 of 1000 to 100000 nM. `Cc1ccc(Nc2nc(NC(C)C)nc3ccsc23)c(C)c1` [Example 32, N^4-(2,4-dimethylphenyl)-N^2-isopropylthieno[3,2-d]pyrimidine-2,4-diamine] showed an EC50 of 1000 to 100000 nM. For `CC(C)Nc1nc(NCc2c(F)cccc2C(F)(F)F)c2cccnc2n1` [Example 166, N^4-(2-fluoro-6-(trifluoromethyl)benzyl)-N^2-isopropylpyrido[2,3-d]pyrimidine-2,4-diamine], the EC50 was 100 to 1000 nM. Work on `N#CC1CN(c2nc(NCc3ccccc3C(F)(F)F)c3cccnc3n2)CCO1` (stereo not drawn) [Example 283, 4-(4-((2-(trifluoromethyl)benzyl)amino)pyrido[2,3-d]pyrimidin-2-yl)morpholine-2-carbonitrile] yielded an EC50 of 0.01 to 1 nM. `C[C@H]1CN(c2nc(NCc3cccnc3C(F)(F)F)c3cccnc3n2)[C@@H](C)CO1` [Example 279, 2-((2S,5S)-2,5-dimethylmorpholino)-N-((2-(trifluoromethyl)pyridin-3-yl)methyl)pyrido[2,3-d]pyrimidin-4-amine] showed an EC50 of 0.01 to 1 nM. Compound `CC1(C)CCN(c2nc(NCc3cccnc3C(F)(F)F)c3cccnc3n2)CC1` [Example 233, 2-(4,4-dimethyipiperidin-1-yl)-N-((2-(trifluoromethyl)pyridin-3-yl)methyl)pyrido[2,3-d]pyrimidin-4-amine] has an EC50 of 10 to 100 nM. Compound `C[C@@H]1COCCN1c1nc(NCc2ccccc2C(F)(F)F)c2cccnc2n1` [Example 209, (R)-2-(3-methylmorpholino)-N-(2-(trifluoromethyl)benzyl)pyrido[2,3-d]pyrimidin-4-amine] has an EC50 of 10 to 100 nM. Work on `FC(F)(F)c1ccncc1CNc1ncnc2ccsc12` [Example 82] yielded an EC50 of 1000 to 100000 nM. Compound `Oc1nc(NCc2cccnc2C(F)(F)F)c2cccnc2n1` [Example 182, 4-(((2-(trifluoromethyl)pyridin-3-yl)methyl)amino)pyrido[2,3-d]pyrimldin-2-ol] has an EC50 of 1000 to 100000 nM. For `CC1COCCN1c1nc(NCc2ccccc2C(F)(F)F)c2nccnc2n1` (stereo not drawn) [Example 310, 2-(3-methylmorpholino)-N-(2-(trifluoromethyl)benzyl)pteridin-4-amine], the EC50 was 100 to 1000 nM. Compound `FC(F)(F)c1ncccc1CNc1ncnc2ccsc12` [Example 103, N-((2-(trifluoromethyl)pyridin-3-yl)methyl)thieno[3,2-d]pyrimidin-4-amine] has an EC50 of 10 to 100 nM. `FC(F)(F)c1cnn(-c2nc(NCc3cccnc3C(F)(F)F)c3cccnc3n2)c1` [Example 203, 2-(4-(trifluoromethyl)-1H-pyrazol-1-yl)-N-((2-(trifluoromethyl)pyridin-3-yl)methyl)pyrido[2,3-d]pyrimidin-4-amine] gave an EC50 of 100 to 1000 nM. In the case of `FC(F)(F)c1ccccc1CNc1nc(Cl)nc2ccsc12` [Example 46, 2-chloro-N-(2-(trifluoromethyl)benzyl)thieno[3,2-d]pyrimidin-4-amine], the EC50 is reported as 10 to 100 nM. Work on `COc1cccc(CNc2ncnc3ccsc23)c1C(F)(F)F` [Example 51, N-(3-methoxy-2-(trifluoromethyl)benzyl)thieno[3,2-d]pyrimidin-4-amine] yielded an EC50 of 10 to 100 nM. For `Clc1nc(NC2(c3ccccc3Cl)CC2)c2sccc2n1` [Example 47, 2-chloro-N-(1-(2-chlorophenyl)cyclopropyl)thieno[3,2-d]pyrimidine-4-diamine], the EC50 was 1000 to 100000 nM. Work on `C[C@@H]1COCCN1c1nc(N2CCC2c2cccnc2C(F)(F)F)c2cccnc2n1` (stereo partly drawn) [Example 288, (3R)-3-methyl-4-(4-(2-(2-(trifluoromethyl)pyridin-3-yl)azetidin-1-yl)pyrido[2,3-d]pyrimidin-2-yl)morpholine] yielded an EC50 of 1 to 10 nM. `FC(F)(F)c1ncccc1CNc1nc(N2CCCC23CCC3)nc2ncccc12` [Example 298] was tested, and the EC50 was less than 0.01 nM. In the case of `CC(C)Nc1nc(NC2(c3ccccc3Cl)CC2)c2sccc2n1` [Example 48, N^4-(1-(2-chlorophenyl)cyclopropyl)-N^2-isopropylthieno[3,2-d]pyrimidine-2,4-diamine], the EC50 is reported as 100 to 1000 nM. In the case of `Cc1nc(N(C)C(C)c2ccccc2C(F)(F)F)c2sc(C3(O)COC3)cc2n1` (stereo not drawn) [Example 76], the EC50 is reported as 1000 to 100000 nM. `FC1(F)CCN(Cc2nc(NCc3ccccc3C(F)(F)F)c3cccnc3n2)CC1` [Example 223] showed an EC50 of 100 to 1000 nM. For `C[C@H]1COCCN1c1nc(NCc2ccccc2C(F)(F)F)c2cccnc2n1` [Example 208, (S)-2-(3-methylmorpholino)-N-(2-(trifluoromethyl)benzyl)pyrido[2,3-d]pyrimidin-4-amine], the EC50 was less than 0.01 nM. Work on `CC(C)Nc1nc(NCc2ccc(Cl)cc2)c2sccc2n1` [Example 19, N^4-(4-chlorobenzyl)-N^2-isopropylthieno[3,2-d]pyrimidine-2,4-diamine] yielded an EC50 of 1000 to 100000 nM. In the case of `FC(F)(F)c1ccccc1CNc1nc(N2CCOCC2)nc2ccsc12` [Example 94, 2-morpholino-N-(2-(trifluoromethyl)benzyl)thieno[3,2-d]pyrimidin-4-amine], the EC50 is reported as 1000 to 100000 nM. Work on `CC(C)Nc1nc(NCc2ccc(C(F)(F)F)nc2)c2cccnc2n1` [Example 130, N^2-isopropyl-N^4-((6-(trifluoromethyl)pyridin-3-yl)methyl)pyrido[2,3-d]pyrimidine-2,4-diamine] yielded an EC50 of 1000 to 100000 nM. With `FC(F)(F)c1ncccc1CNc1nc(CN2CCC(Cl)CC2)nc2ncccc12` [Example 227, 2-((4-chloropiperidin-1-yl)methyl)-N-((2-(trifluoromethyl)pyridin-3-yl)methyl)pyrido[2,3-d]pyrimidin-4-amine] the EC50 was 100 to 1000 nM. Compound `FC(F)(F)CNc1nc(NCc2ccccc2C(F)(F)F)c2sccc2n1` [Example 42, N^2-(2,2,2-trifluoroethyl)-N^4-(2-(trifluoromethyl)benzyl)thieno[3,2-d]pyrimidine-2,4-diamine] has an EC50 of 100 to 1000 nM.

Same assay, conditions: C6/36, 168 h, read-out: In vitro anti-Wolbachia activity
`Cc1cc2ncnc(N(C)C(C)c3ccccc3C(F)(F)F)c2s1` (stereo not drawn) [Example 1] gave an EC50 of 1000 to 100000 nM.

Same assay, conditions: C6/36 Aedes albopictus cells infected with Wolbachia pipientis wAlbB, 7 days incubation, SYTO 11 imaging; read-out: In vitro anti-Wolbachia activity
With “2-((3R)-3,5-dimethylmorpholino)-N-(2-(trifluoromethyl)benzyl)pyrido[2,3-d]pyrimidin-4-amine [Example 302]” the EC50 was less than 0.01 nM.

Reference: US11518760B2 (Liverpool School of Tropical Medicine, priority 2017, dated 2022)
